Data: patent EP4566594A1, “LIPID NANOPARTICLES COMPRISING LONG-CHAIN CERAMIDE AND COMPOSITION FOR CELL DEATH COMPRISING SAME” (Croda Korea Limited, priority 2022, dated 2024)

Experiments:
MDA-MB-231 cells = assay: Cell viability, WST-8 reagent, absorbance at 450nm; format: cell-based; conditions: ceramide alone dispersed in aqueous solution in the same amount as in Examples 1 and 2, column purified
Protocol: (§1) MDA-MB-231 and MDA-MB-468 cells were cultured at 37°C under 10% fetal bovine serum (FBS) and ATCC modified RPMI medium (Gibco) supplemented with 1% penicillin/streptomycin, 5% CO2.
(§2) For experiments, lipid nanoparticles prepared at each concentration of C18-ceramide were respectively treated (the number of particles: 4.5 x 10^8 ± 2.05 x 10^8) to MDA-MB-231 and MDA-MB-468 cells which were inoculated into a 96-well plate (1.5 x 10^3 cells/well). After 24 hours of incubation, WST-8 reagent (Dojindo) was added to the medium at 37°C for 1 hour. Absorbance was measured at 450nm using a microplate reader (BioTek). Thereafter, cell viability was confirmed by measuring absorbance every 24 hours.

MDA-MB-468 cells = assay: Cell viability, WST-8 reagent, absorbance at 450nm; format: cell-based; conditions: ceramide alone dispersed in aqueous solution in the same amount as in Examples 1 and 2, column purified
Protocol: as §1, §2
In addition, the cell viability of MDA-MB-468 cells was reduced to 53% when lipid nanoparticles of 5 mM C18-ceramide were treated (FIG. 9b).

[1] = system: apoptosis-related proteins (BAX, BAD, BCL2, and cleaved caspase3); assay: Western blotting of apoptosis-related proteins in MDA-MB-468 cells; format: cell-based; conditions: ceramide alone dispersed in aqueous solution in the same amount as in Examples 1 and 2, column purified
Protocol: MDA-MB-468 cells were cultured in ATCC modified RPMI medium (Gibco) supplemented with 10% fetal bovine serum (FBS) and 1% penicillin/streptomycin at 37°C under 5% CO2.
For experiments, MDA-MB-468 cells were seeded onto 60 mm^2 cell culture plates (1.3 x 10^6 cells/plate). After 24 hours, LNP prepared at different concentrations of C18-ceramide was calculated and added to 2.5 mL opti-MEM medium per well such that 2.48 x 10^11±2.75 x 10^10 particles were included in the medium. The medium containing LNP was treated and incubated at 37°C for 24 hours.
Thereafter, the cells were collected, and western blotting was performed. For this purpose, MDA-MB-468 cells treated with LNP were lysed in RIPA buffer containing a protease inhibitor and a phosphatase inhibitor (Sigma). Total cell lysates were quantified using the BCA protein assay kit (Thermo Scientific). Next, the cell lysate (50 µg) was loaded on a 4-15% gradient SDS-PAGE gel (Biorad) under denaturing conditions and transferred to a PVDF membrane (iBlot2 Dry Blotting System, Thermo Scientific). […]
The secondary antibody conjugated with HRP was reacted at room temperature for 2 hours, and then the membrane was treated with Western ECL, and the luminescence image was analyzed using LAS500 (GE Healthcare), and the results are shown in FIG. 10.

[2] = Solubility of C18-ceramide itself in aqueous solution; format: physicochemical; conditions: without lipid nanoparticles

In the case of `CCCCCCCC/C=C\CCCCCCCC(=O)N[C@@H](CO)[C@H](O)[C@H](O)CCCCCCCCCCCCCC` (stereo in doubt) [C18-ceramide, N-Oleoyl-phytosphingosine], the cell survival rate (MDA-MB-231 cells) is reported as “no change”, the cell survival rate (MDA-MB-468 cells) is reported as “no change” and the antitumor-related protein expression [1] is reported as “no change”. The “solubility in an aqueous solution” value [2] was “insoluble”.
